Literature values, collected in patent publication US11045483B2, “Pain-killing composition comprising a salicylic acid derivative” (AB7 INNOVATION S.A.S.U, priority 2015, dated 2021).

Settings: topical application of formulations; Sheree E. Cross et al., 1998

time that must elapse before detection in the circulatory system: around 60 minutes
SMILES: COC(=O)c1ccccc1O [methyl salicylate]
